Holding throughout (assay): relative viability (nuclei count vs DMSO), 5 days (fraction); higher = more cells survive
Compound in the test “Halofuginone + AZD7762”: O=C(C[C@H]1NCCC[C@@H]1O)Cn1cnc2cc(Br)c(Cl)cc2c1=O (racemic) [Halofuginone] + NC(=O)Nc1cc(-c2cccc(F)c2)sc1C(=O)N[C@H]1CCCNC1 [AZD7762] (partner 0.2 µM)
A digest of the protocol:
(§1)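 One day after seeding in 1536-well plates, lung cancer cell lines were dosed by pin tool. Dosing was either single-drug or a fixed anchor-drug dose plus five library-drug doses (not always all listed) in √10 steps. After 5 days, nuclei were stained in one fix-and-stain step and counted on 4× images, and relative viability is the nuclei count of treated wells over that of vehicle wells, given as the median of duplicate plates.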

Compound in the test “Cediranib + Luminespib”: COc1cc2c(Oc3ccc4[nH]c(C)cc4c3F)ncnc2cc1OCCCN1CCCC1 [Cediranib] + CCNC(=O)c1noc(-c2cc(C(C)C)c(O)cc2O)c1-c1ccc(CN2CCOCC2)cc1 [Luminespib] (partner 0.01 µM)
A digest of the protocol:
as §1

Compound in test [1]: O=C(C[C@H]1NCCC[C@@H]1O)Cn1cnc2cc(Br)c(Cl)cc2c1=O (racemic) [Halofuginone] + CC(=O)Nc1cccc(-n2c(=O)n(C3CC3)c(=O)c3c(Nc4ccc(I)cc4F)n(C)c(=O)c(C)c32)c1 [Trametinib] (partner 0.02 µM)
The method in brief: as §1

Compound in the test “Cediranib + Pictilisib”: COc1cc2c(Oc3ccc4[nH]c(C)cc4c3F)ncnc2cc1OCCCN1CCCC1 [Cediranib] + CS(=O)(=O)N1CCN(Cc2cc3nc(-c4cccc5[nH]ncc45)nc(N4CCOCC4)c3s2)CC1 [Pictilisib] (partner 1 µM)
The method in brief: as §1

Turning to NCI-H596, the relative viability with Halofuginone + AZD7762 (first compound 0.001 µM) is 1.19; with Halofuginone + AZD7762 (first compound 0.003162 µM), 1.18; in the test with Halofuginone + AZD7762 (first compound 0.01 µM) it was 1.1; in the test with Halofuginone + AZD7762 (first compound 0.03162 µM) it was 0.95; with Halofuginone + AZD7762 (first compound 0.1 µM), 0.722; with Cediranib + Luminespib (first compound 0.04 µM) it was 0.709. Further, the relative viability was 1.06 with Cediranib + Luminespib (first compound 0.1265 µM); 0.98 with Cediranib + Luminespib (first compound 0.4 µM); 0.955 in the test with Cediranib + Luminespib (first compound 4 µM); 0.889 in test [1] (first compound 0.001 µM); 0.732 in test [1] (first compound 0.003162 µM); 0.811 in test [1] (first compound 0.01 µM). Moreover, the relative viability worked out at 0.898 in test [1] (first compound 0.03162 µM); 0.542 in test [1] (first compound 0.1 µM); 0.458 with Cediranib + Pictilisib (first compound 0.04 µM); 0.493 with Cediranib + Pictilisib (first compound 0.1265 µM); 0.348 with Cediranib + Pictilisib (first compound 0.4 µM); 0.37 with Cediranib + Pictilisib (first compound 1.265 µM). Further, in the test with Cediranib + Pictilisib (first compound 4 µM), the relative viability came out at 0.241.

Consider HARA, for which the relative viability with Halofuginone + AZD7762 (first compound 0.001 µM) turned out to be 0.279; with Halofuginone + AZD7762 (first compound 0.003162 µM), 0.506; in the test with Halofuginone + AZD7762 (first compound 0.01 µM) it was 0.391; with Halofuginone + AZD7762 (first compound 0.03162 µM), 0.305; in the test with Halofuginone + AZD7762 (first compound 0.1 µM), 0.304; with Cediranib + Luminespib (first compound 0.04 µM), 0.822. Moreover, the relative viability amounted to 0.528 with Cediranib + Luminespib (first compound 0.4 µM); 0.775 with Cediranib + Luminespib (first compound 1.265 µM); 1.09 with Cediranib + Luminespib (first compound 4 µM); 0.918 in test [1] (first compound 0.001 µM); 1.27 in test [1] (first compound 0.003162 µM); 0.639 in test [1] (first compound 0.01 µM). Further, the relative viability came to 0.968 in test [1] (first compound 0.03162 µM); 0.221 in test [1] (first compound 0.1 µM); 0.269 with Cediranib + Pictilisib (first compound 0.04 µM); 0.684 with Cediranib + Pictilisib (first compound 0.1265 µM); 0.393 with Cediranib + Pictilisib (first compound 0.4 µM); 0.481 in the test with Cediranib + Pictilisib (first compound 1.265 µM). The relative viability with Cediranib + Pictilisib (first compound 4 µM) was 0.37.

On to NCI-H2170, for which the relative viability with Halofuginone + AZD7762 (first compound 0.001 µM) was 0.929; with Halofuginone + AZD7762 (first compound 0.003162 µM), 0.935; with Halofuginone + AZD7762 (first compound 0.01 µM) it was 0.875; with Halofuginone + AZD7762 (first compound 0.03162 µM) it was 0.886; with Halofuginone + AZD7762 (first compound 0.1 µM), 0.866; with Cediranib + Luminespib (first compound 0.04 µM), 0.654. Besides, the relative viability was 0.704 with Cediranib + Luminespib (first compound 0.1265 µM); 0.666 in the test with Cediranib + Luminespib (first compound 0.4 µM); 0.547 in the test with Cediranib + Luminespib (first compound 1.265 µM); 0.848 with Cediranib + Luminespib (first compound 4 µM); 0.856 in test [1] (first compound 0.001 µM); 0.852 in test [1] (first compound 0.003162 µM). For the same cell line, the relative viability in test [1] (first compound 0.01 µM) stood at 0.954; in test [1] (first compound 0.03162 µM) it was 0.948; in test [1] (first compound 0.1 µM), 0.868; with Cediranib + Pictilisib (first compound 0.04 µM) it was 0.259; with Cediranib + Pictilisib (first compound 0.1265 µM), 0.275; with Cediranib + Pictilisib (first compound 0.4 µM), 0.306. Also, the relative viability in the test with Cediranib + Pictilisib (first compound 1.265 µM) was determined as 0.254; with Cediranib + Pictilisib (first compound 4 µM), 0.301.

Consider NCI-H2126, for which the relative viability in the test with Halofuginone + AZD7762 (first compound 0.001 µM) turned out to be 1.02; with Halofuginone + AZD7762 (first compound 0.003162 µM), 0.976; with Halofuginone + AZD7762 (first compound 0.01 µM), 1.01; with Halofuginone + AZD7762 (first compound 0.03162 µM) it was 0.889; with Halofuginone + AZD7762 (first compound 0.1 µM), 0.995; with Cediranib + Luminespib (first compound 0.04 µM) it was 0.904. The relative viability in the test with Cediranib + Luminespib (first compound 0.1265 µM) came to 1.03; with Cediranib + Luminespib (first compound 0.4 µM) it was 0.873; with Cediranib + Luminespib (first compound 1.265 µM), 0.752; with Cediranib + Luminespib (first compound 4 µM) it was 0.816; in test [1] (first compound 0.001 µM), 0.525; in test [1] (first compound 0.003162 µM) it was 0.544. Moreover, the relative viability was 0.585 in test [1] (first compound 0.01 µM); 0.546 in test [1] (first compound 0.03162 µM); 0.513 in test [1] (first compound 0.1 µM); 0.442 with Cediranib + Pictilisib (first compound 0.04 µM); 0.432 in the test with Cediranib + Pictilisib (first compound 0.1265 µM); 0.458 in the test with Cediranib + Pictilisib (first compound 0.4 µM). Also, the relative viability with Cediranib + Pictilisib (first compound 1.265 µM) was found to be 0.452; with Cediranib + Pictilisib (first compound 4 µM) it was 0.435.

Source of the values: the supplement of paper PMC10307832.
